# According to ChEMBL document CHEMBL5390314, “Repurposing Azoles to Resolve Serotogenic Toxicity Associated with Linezolid to Combat Multidrug-Resistant Tuberculosis” (ACS Med Chem Lett, 2023):
# Tests used:
# [1] = test system: Mycobacterium tuberculosis; assay: Anti-mycobacterial activity against Mycobacterium tuberculosis clinical isolate assessed as bacterial growth inhibition incubated for 7 days by microplate Alamar blue assay; assay type: functional; conditions: 168 h, time 7 day
# [2] = biological target: T1, Amine oxidase [flavin-containing] A (Homo sapiens, UniProt P21397); assay: Inhibition of recombinant MAO-A (unknown origin) using kynuramine as a substrate by MAO assay; assay type: toxicity
# T1 sequence (P21397 whole entry): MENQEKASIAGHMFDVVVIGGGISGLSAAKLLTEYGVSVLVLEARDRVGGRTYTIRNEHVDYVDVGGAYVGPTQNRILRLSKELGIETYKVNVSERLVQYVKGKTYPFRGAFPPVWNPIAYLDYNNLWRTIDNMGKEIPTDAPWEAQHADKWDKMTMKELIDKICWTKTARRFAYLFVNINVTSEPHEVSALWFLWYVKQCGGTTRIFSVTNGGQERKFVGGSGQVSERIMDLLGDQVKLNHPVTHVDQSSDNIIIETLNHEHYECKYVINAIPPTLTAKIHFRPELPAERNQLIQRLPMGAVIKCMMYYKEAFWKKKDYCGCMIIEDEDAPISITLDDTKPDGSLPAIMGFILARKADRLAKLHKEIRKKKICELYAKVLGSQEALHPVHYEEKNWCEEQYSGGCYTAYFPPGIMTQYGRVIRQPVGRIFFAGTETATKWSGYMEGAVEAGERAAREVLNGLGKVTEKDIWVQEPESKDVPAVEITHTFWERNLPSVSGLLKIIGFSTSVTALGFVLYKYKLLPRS
# [3] = biological target: T2, Amine oxidase [flavin-containing] B (Homo sapiens, UniProt P27338); assay: Inhibition of recombinant MAO-B (unknown origin) using benzylamine as a substrate by MAO assay; assay type: toxicity
# T2 sequence (P27338 whole entry): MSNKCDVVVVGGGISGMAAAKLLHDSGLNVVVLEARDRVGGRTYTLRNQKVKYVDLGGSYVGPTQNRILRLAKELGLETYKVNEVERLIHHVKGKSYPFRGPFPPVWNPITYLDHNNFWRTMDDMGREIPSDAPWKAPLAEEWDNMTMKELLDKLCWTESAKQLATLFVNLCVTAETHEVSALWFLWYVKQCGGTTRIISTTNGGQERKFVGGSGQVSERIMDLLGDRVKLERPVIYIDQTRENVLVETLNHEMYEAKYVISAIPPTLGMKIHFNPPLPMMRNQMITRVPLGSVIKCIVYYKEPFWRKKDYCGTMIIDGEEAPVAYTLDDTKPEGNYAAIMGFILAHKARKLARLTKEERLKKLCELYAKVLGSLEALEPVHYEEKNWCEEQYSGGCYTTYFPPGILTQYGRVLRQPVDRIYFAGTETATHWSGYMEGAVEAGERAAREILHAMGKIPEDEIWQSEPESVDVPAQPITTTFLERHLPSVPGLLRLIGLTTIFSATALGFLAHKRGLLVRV
# [4] = test system: Mycobacterium tuberculosis; assay: Anti-mycobacterial activity against Mycobacterium tuberculosis H37Rv assessed as bacterial growth inhibition incubated for 7 days by microplate Alamar blue assay; assay type: functional; conditions: 168 h, time 7 day
SMILES,MIC50 [1],MIC90 [1],IC50 [2],IC50 [3],MIC [4]
Clc1ccccc1C(c1ccccc1)(c1ccccc1)n1ccnc1 [CLOTRIMAZOLE],0.87 µM,1.56 µM,25.4 µM,31.2 µM,2.26 µM
NNC(=O)c1ccncc1 [ISONIAZID],< 0.2 µM,< 0.2 µM,–,–,–
CCC(C)n1ncn(-c2ccc(N3CCN(c4ccc(OCC5COC(Cn6cncn6)(c6ccc(Cl)cc6Cl)O5)cc4)CC3)cc2)c1=O (stereo unspecified) [ITRACONAZOLE],–,–,–,–,> 35 µM
CC(=O)NC[C@H]1CN(c2ccc(N3CCOCC3)c(F)c2)C(=O)O1 [LINEZOLID],0.34 µM,0.78 µM,6.52 µM,0.619 µM,2.31 µM
Clc1ccc(COC(Cn2ccnc2)c2ccc(Cl)cc2Cl)c(Cl)c1 (stereo unspecified) [MICONAZOLE],1 µM,1.56 µM,37.8 µM,13.2 µM,3.74 µM
CC[C@@H]([C@H](C)O)n1ncn(-c2ccc(N3CCN(c4ccc(OC[C@@H]5CO[C@@](Cn6cncn6)(c6ccc(F)cc6F)C5)cc4)CC3)cc2)c1=O [POSACONAZOLE],–,–,–,–,> 35 µM
CO[C@H]1/C=C/O[C@@]2(C)Oc3c(C)c(O)c4c(O)c(c(/C=N/N5CCN(C)CC5)c(O)c4c3C2=O)NC(=O)/C(C)=C\C=C\[C@H](C)[C@H](O)[C@@H](C)[C@@H](O)[C@@H](C)[C@H](OC(C)=O)[C@@H]1C [RIFAMPIN],< 0.04 µM,< 0.04 µM,–,–,–
